Assays:
Type in all cases: cell-based
hEP4/Gqs5 = biological target: T1, hEP4/Gqs5 (Homo sapiens, UniProt P35408); experiment: FLIPR calcium signal, HEK-293(EBNA) cells expressing hEP4/Gqs5; conditions: for EC50: read-out: Ca2+ Signal-EC50(nM) EP4
T1 construct: expressed in transfected cells; host or cells: HEK-293(EBNA)
Protocol: (§1) HEK-293(EBNA) cells, stably expressing one type or subtype of recombinant human prostaglandin receptors (prostaglandin receptors expressed: hDP/Gqs5; hEP1; hEP2/Gqs5; hEP3A/Gqi5; hEP4/Gqs5; hFP; hIP; hTP), were cultured in 100 mm culture dishes in high-glucose DMEM medium containing 10% fetal bovine serum, 2 mM l-glutamine, 250 µg/ml geneticin (G418) and 200 μg/ml hygromycin B as selection markers, and 100 units/ml penicillin G, 100 µg/ml streptomycin and 0.25 μg/ml amphotericin B.
(§2) Cells were seeded at a density of 5×10^4 cells per well in Biocoat® Poly-D-lysine-coated black-wall, clear-bottom 96-well plates (Becton-Dickinson) and allowed to attach overnight in an incubator at 37° C. Cells were then washed two times with HBSS-HEPES buffer (Hanks Balanced Salt Solution without bicarbonate and phenol red, 20 mM HEPES, pH 7.4) using a Denley Cellwash plate washer (Labsystems). After 45 minutes of dye-loading in the dark, using the calcium-sensitive dye Fluo-4 […] at a final concentration of 2 μM, plates were washed four times with HBSS-HEPES buffer to remove excess dye leaving 100 μl in each well. Plates were re-equilibrated to 37° C. for a few minutes.
(§3) Cells were excited with an Argon laser at 488 nm, and emission was measured through a 510-570 nm bandwidth emission filter (FLIPR™, Molecular Devices, Sunnyvale, Calif.). Drug solution was added in a 50 µl volume to each well to give the desired final concentration. The peak increase in fluorescence intensity was recorded for each well. On each plate, four wells each served as negative (HBSS-HEPES buffer) and positive controls (standard agonists: BW245C (hDP); PGE2 (hEP1; hEP2/Gqs5; hEP3A/Gqi5; hEP4/Gqs5); PGF2α (hFP); carbacyclin (hIP); U-46619 (hTP), depending on receptor). The peak fluorescence change in each drug-containing well was then expressed relative to the controls.
(§4) Compounds were tested in a high-throughput (HTS) or concentration-response (CoRe) format. In the HTS format, forty-four compounds per plate were examined in duplicates at a concentration of 10^−5 M. To generate concentration-response curves, four compounds per plate were tested in duplicates in a concentration range between 10^−5 and 10^−11 M. The duplicate values were averaged. In either, HTS or CoRe format each compound was tested on at least 3 separate plates using cells from different passages to give an n≧3.

hEP3A/Gqi5 = biological target: T2, hEP3A/Gqi5 (Homo sapiens, UniProt P43115); experiment: FLIPR calcium signal, HEK-293(EBNA) cells expressing hEP3A/Gqi5; conditions: for EC50: read-out: Ca2+ Signal-EC50(nM) EP3
T2 construct: expressed in transfected cells; host or cells: HEK-293(EBNA)
T2 sequence (P43115 1-390): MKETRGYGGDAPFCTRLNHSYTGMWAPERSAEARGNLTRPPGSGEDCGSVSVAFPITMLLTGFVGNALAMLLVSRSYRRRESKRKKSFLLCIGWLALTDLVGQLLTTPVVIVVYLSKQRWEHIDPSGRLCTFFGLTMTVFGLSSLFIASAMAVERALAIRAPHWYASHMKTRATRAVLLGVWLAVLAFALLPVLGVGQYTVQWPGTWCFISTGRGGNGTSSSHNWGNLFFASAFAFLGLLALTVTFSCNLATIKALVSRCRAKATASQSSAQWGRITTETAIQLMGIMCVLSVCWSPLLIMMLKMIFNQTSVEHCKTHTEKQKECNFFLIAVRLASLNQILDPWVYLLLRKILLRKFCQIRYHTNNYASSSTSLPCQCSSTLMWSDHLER
Protocol: as §1, §2, §3, §4

EP2 = EP2 (Homo sapiens, UniProt P43116); experiment: cAMP measurement, EP2 (data in parentheses); conditions: data in parentheses refer to cAMP measurement
Sequence of EP2 (P43116 whole entry): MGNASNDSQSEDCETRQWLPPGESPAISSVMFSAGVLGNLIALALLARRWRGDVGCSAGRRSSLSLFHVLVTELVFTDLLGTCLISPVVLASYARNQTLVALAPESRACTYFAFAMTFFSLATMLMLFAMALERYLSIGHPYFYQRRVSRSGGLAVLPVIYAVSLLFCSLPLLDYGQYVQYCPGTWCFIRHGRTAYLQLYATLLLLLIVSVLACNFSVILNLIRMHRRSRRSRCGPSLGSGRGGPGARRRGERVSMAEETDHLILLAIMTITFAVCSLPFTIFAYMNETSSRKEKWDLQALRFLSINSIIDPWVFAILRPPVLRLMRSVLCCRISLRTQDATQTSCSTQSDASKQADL

hEP2/Gqs5 = biological target: T3, hEP2/Gqs5 (Homo sapiens, UniProt P43116); experiment: FLIPR calcium signal, HEK-293(EBNA) cells expressing hEP2/Gqs5; conditions: value outside parentheses, read-out: Ca2+ Signal-EC50(nM) EP2
T3 construct: expressed in transfected cells; host or cells: HEK-293(EBNA)
T3 sequence (P43116 whole entry): as above
Protocol: as §1, §2, §3, §4

hIP = biological target: T4, hIP (Homo sapiens, UniProt P43119); experiment: FLIPR calcium signal, HEK-293(EBNA) cells expressing hIP
T4 construct: expressed in transfected cells; host or cells: HEK-293(EBNA)
T4 sequence (P43119 whole entry): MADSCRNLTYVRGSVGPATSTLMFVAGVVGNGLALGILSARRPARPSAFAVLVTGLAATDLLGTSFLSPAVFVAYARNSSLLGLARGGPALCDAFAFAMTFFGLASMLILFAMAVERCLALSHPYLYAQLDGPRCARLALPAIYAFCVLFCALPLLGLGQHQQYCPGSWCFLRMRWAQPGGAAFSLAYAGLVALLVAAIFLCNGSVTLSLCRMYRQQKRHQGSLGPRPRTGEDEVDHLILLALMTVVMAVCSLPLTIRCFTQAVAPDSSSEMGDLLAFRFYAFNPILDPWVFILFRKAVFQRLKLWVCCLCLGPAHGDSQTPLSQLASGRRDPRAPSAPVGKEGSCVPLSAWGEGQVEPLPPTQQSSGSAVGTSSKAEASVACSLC
Protocol: as §1, §2, §3, §4

T1 sequence (P35408 whole entry): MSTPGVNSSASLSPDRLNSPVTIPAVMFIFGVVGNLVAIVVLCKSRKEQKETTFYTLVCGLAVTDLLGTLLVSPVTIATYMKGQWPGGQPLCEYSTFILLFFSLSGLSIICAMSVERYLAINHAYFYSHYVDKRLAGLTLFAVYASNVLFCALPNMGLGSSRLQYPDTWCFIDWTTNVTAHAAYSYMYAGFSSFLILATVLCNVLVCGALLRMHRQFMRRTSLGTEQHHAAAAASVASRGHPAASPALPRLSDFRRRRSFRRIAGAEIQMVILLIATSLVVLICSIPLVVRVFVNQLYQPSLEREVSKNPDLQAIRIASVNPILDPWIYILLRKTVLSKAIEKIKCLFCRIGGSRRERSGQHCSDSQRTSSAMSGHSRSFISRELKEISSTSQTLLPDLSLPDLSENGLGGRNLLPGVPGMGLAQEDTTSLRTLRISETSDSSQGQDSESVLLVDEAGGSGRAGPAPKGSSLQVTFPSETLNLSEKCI

SMILES | Ca2+ Signal-EC50(nM) EP4 (hEP4/Gqs5) | Ca2+ Signal-EC50(nM) EP3 (hEP3A/Gqi5) | EC50 (EP2) [nM] | EC50 (hEP2/Gqs5) [nM] | Ca2+ Signal-EC50(nM) IP (hIP) | EC50 (hEP3A/Gqi5) [nM] | EC50 (hEP4/Gqs5) [nM]
CCCCCC(O)c1ccc([C@H]2C(=O)CC[C@@H]2CCCc2ccc(C(=O)O)s2)cc1 (some centres unmarked) [compound 2] | notactive | notactive | 9 | 25 | notactive | – | –
CCCCCC(O)c1ccc([C@@H]2[C@@H](C/C=C\CCCC(=O)O)CC[C@H]2Cl)cc1 (some centres unmarked) [compound 6] | notactive | – | 94 | 731 | notactive | 182 | –
CCCCCC(O)c1ccc([C@H]2C(=O)CC[C@@H]2CCCc2ccc(C(=O)O)s2)cc1 (some centres unmarked) [compound 1] | – | – | 5 | 62 | notactive | 8780 | > 10000
CCCCCC(O)c1ccc([C@H]2C(=O)C=C[C@@H]2CCCc2ccc(C(=O)O)s2)cc1 (some centres unmarked) [compound 11] | – | – | 9 | 208 | notactive | 4550 | > 10000
CCCCCC(O)c1ccc([C@H]2C(=O)CC[C@@H]2C/C=C\CCCC(=O)O)cc1 (some centres unmarked) [compound 5] | notactive | – | 34 | 381 | notactive | 4420 | –
CCCCCC(O)c1ccc([C@@H]2[C@@H](CCCc3ccc(C(=O)O)s3)CCC2(Cl)Cl)cc1 (some centres unmarked) [compound 3] | notactive | notactive | 3 | 1620 | notactive | – | –
CCCCCC(O)c1ccc([C@@H]2[C@@H](C/C=C\CCCC(=O)O)CC[C@H]2O)cc1 (some centres unmarked) [compound 7] | – | – | 73 | 2510 | notactive | 3480 | > 10000
